Reference: US10815230B2, “Casein kinase 1 delta inhibitor” (ELECTROPHORETICS LIMITED, priority 2015, dated 2020)

Key:
Assay in all cases: Kinase selectivity, % remaining activity
Type in all cases: biochemical
CK1a1 = CK1a1 (Homo sapiens, UniProt P48729); conditions: CK1a1, 10 μM compound, 10 μM ATP, duplicate
Experimental: (§1) Compounds were tested in single dose duplicate mode at a concentration of 10 μM (in DMSO) and reactions were carried out at 10 μM ATP, Table 3 reports the % of remaining activity (relative to DMSO).

CK1e = CK1e (Homo sapiens, UniProt P49674); conditions: 10 μM compound, 10 μM ATP, duplicate
Experimental: (§2) A two-tier strategy to determine the selectivity of compound A was applied: first, the compound was tested at a single concentration (in duplicate) to determine the %-remaining activity of the target kinase. Subsequently, the IC50 of compound A and comparative compounds for casein kinase 1 delta were determined.
as §1

CK1g1 = CK1g1 (Homo sapiens, UniProt Q9HCP0); conditions: 10 μM compound, 10 μM ATP, duplicate
Experimental: as §2, §1

CK1g3 = CK1g3 (Homo sapiens, UniProt Q9Y6M4); conditions: 10 μM compound, 10 μM ATP, duplicate
Experimental: as §2, §1

EPHA2 = EPHA2 (Homo sapiens, UniProt P29317); conditions: 10 μM compound, 10 μM ATP, duplicate
Experimental: as §2, §1

FGFR1 = FGFR1 (Homo sapiens, UniProt P11362); conditions: 10 μM compound, 10 μM ATP, duplicate
Experimental: as §2, §1

GSK3B = GSK3B (Homo sapiens, UniProt P49841); conditions: 10 μM compound, 10 μM ATP, duplicate
Experimental: as §2, §1

JNK2 = JNK2 (Homo sapiens, UniProt P45984); conditions: 10 μM compound, 10 μM ATP, duplicate
Experimental: as §2, §1

LCK = LCK (Homo sapiens, UniProt P06239); conditions: 10 μM compound, 10 μM ATP, duplicate
Experimental: as §2, §1

MSK1/RPS6KA5 = MSK1/RPS6KA5 (Homo sapiens, UniProt O75582); conditions: 10 μM compound, 10 μM ATP, duplicate
Experimental: as §2, §1

P38a/MAPK14 = P38a/MAPK14 (Homo sapiens, UniProt Q16539); conditions: 10 μM compound, 10 μM ATP, duplicate
Experimental: as §2, §1

PDK1/PDPK1 = biological target: T1, PDK1/PDPK1 (Homo sapiens, UniProt O15530); conditions: 10 μM compound, 10 μM ATP, duplicate
T1 sequence (O15530 1-556): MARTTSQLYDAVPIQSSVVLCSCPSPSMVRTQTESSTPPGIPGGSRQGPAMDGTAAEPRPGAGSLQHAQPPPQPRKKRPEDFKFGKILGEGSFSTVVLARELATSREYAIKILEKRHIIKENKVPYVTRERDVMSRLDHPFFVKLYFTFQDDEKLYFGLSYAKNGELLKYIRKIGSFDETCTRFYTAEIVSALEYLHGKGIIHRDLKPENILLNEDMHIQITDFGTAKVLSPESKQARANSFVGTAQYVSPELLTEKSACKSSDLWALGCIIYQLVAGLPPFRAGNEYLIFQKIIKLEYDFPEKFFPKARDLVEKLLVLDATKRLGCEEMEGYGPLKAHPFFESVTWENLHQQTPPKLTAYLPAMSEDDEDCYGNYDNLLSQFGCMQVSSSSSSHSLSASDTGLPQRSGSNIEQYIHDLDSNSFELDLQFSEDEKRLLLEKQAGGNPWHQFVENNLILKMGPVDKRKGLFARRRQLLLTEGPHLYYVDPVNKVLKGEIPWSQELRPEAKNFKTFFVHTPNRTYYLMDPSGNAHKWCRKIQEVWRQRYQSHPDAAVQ
Experimental: as §2, §1

PKA = PKA (Homo sapiens, UniProt P17612); conditions: 10 μM compound, 10 μM ATP, duplicate
Experimental: as §2, §1

PKCb2 = PKCb2 (Homo sapiens, UniProt P05771); conditions: 10 μM compound, 10 μM ATP, duplicate
Experimental: as §2, §1

RIPK2 = RIPK2 (Homo sapiens, UniProt O43353); conditions: 10 μM compound, 10 μM ATP, duplicate
Experimental: as §2, §1

YES/YES1 = YES/YES1 (Homo sapiens, UniProt P07947); conditions: 10 μM compound, 10 μM ATP, duplicate
Experimental: as §2, §1

c-Src = c-Src (Homo sapiens, UniProt P12931); conditions: 10 μM compound, 10 μM ATP, duplicate
Experimental: as §2, §1

[1] = read-out: % of remaining activity (relative to DMSO)

Sequence of JNK2 (P45984 whole entry): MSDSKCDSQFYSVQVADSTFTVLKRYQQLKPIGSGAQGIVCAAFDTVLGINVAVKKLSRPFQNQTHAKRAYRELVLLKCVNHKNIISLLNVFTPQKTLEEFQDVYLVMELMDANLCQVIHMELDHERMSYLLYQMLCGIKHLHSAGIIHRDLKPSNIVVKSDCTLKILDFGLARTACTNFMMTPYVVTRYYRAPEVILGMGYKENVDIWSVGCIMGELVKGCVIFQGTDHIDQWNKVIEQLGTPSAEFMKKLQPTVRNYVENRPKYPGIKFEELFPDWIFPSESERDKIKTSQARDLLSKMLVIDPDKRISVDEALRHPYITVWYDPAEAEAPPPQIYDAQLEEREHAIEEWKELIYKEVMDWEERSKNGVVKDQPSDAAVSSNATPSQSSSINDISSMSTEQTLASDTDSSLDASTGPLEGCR
Sequence of CK1g1 (Q9HCP0 whole entry): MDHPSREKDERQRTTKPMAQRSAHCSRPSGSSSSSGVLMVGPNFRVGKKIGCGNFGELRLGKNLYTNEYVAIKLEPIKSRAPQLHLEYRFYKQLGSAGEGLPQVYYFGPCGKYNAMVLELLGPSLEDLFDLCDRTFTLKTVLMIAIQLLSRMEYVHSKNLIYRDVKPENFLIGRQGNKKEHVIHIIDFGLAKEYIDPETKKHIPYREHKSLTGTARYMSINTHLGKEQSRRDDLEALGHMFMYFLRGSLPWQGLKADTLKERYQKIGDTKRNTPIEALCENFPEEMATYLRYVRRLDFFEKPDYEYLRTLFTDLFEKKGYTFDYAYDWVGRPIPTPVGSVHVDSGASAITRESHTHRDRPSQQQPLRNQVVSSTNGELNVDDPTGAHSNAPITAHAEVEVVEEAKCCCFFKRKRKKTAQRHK
Sequence of MSK1/RPS6KA5 (O75582 whole entry): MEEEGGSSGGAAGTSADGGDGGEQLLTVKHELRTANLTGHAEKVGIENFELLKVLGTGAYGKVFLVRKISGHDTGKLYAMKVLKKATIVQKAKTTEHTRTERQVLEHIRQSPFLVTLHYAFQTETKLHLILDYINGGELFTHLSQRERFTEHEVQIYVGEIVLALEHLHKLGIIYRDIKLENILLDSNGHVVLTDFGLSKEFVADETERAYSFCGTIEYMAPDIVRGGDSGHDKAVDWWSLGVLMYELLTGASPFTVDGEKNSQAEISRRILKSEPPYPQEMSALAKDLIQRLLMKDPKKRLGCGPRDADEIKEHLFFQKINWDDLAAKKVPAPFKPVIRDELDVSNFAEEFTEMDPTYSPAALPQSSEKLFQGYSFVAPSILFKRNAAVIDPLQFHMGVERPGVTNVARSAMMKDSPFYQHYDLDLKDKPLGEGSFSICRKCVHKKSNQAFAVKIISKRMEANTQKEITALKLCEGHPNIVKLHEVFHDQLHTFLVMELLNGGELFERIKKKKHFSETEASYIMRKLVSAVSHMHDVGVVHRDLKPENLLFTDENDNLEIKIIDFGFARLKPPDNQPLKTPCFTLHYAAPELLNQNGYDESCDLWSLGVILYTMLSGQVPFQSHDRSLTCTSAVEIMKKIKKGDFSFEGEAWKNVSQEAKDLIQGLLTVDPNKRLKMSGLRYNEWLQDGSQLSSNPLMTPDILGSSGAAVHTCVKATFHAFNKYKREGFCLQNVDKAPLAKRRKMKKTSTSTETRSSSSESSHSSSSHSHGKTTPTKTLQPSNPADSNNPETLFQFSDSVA
Sequence of CK1g3 (Q9Y6M4 whole entry): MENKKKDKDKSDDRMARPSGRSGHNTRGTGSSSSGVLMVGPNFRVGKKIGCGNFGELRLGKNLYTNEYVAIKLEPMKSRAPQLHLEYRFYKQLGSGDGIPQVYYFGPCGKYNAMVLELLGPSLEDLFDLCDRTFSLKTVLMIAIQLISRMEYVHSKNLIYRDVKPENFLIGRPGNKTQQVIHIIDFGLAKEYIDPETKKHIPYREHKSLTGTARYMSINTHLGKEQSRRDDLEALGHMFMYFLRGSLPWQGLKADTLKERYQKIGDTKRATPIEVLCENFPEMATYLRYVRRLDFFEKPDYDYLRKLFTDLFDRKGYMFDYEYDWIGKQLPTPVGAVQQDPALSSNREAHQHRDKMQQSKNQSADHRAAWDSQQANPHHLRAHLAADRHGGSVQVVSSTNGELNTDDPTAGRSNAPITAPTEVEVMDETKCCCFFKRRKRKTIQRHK
Sequence of P38a/MAPK14 (Q16539 whole entry): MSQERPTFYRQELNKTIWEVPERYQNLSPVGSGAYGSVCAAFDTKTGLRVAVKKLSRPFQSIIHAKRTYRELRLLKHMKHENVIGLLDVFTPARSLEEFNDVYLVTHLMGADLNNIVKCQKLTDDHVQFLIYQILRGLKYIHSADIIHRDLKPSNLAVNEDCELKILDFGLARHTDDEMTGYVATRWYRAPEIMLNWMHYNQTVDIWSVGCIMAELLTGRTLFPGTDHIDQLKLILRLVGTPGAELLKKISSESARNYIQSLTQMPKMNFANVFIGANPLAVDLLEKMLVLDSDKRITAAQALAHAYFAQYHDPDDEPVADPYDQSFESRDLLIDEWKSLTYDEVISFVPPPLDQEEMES
Sequence of CK1a1 (P48729 whole entry): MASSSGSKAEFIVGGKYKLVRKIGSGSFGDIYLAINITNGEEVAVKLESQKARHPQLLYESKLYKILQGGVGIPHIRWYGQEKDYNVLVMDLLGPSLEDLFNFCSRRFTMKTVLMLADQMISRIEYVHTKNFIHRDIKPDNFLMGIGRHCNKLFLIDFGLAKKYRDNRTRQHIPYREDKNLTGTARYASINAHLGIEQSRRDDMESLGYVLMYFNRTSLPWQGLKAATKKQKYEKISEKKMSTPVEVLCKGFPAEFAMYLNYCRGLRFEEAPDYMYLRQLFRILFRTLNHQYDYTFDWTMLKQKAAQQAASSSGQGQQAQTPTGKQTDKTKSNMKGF
Sequence of YES/YES1 (P07947 whole entry): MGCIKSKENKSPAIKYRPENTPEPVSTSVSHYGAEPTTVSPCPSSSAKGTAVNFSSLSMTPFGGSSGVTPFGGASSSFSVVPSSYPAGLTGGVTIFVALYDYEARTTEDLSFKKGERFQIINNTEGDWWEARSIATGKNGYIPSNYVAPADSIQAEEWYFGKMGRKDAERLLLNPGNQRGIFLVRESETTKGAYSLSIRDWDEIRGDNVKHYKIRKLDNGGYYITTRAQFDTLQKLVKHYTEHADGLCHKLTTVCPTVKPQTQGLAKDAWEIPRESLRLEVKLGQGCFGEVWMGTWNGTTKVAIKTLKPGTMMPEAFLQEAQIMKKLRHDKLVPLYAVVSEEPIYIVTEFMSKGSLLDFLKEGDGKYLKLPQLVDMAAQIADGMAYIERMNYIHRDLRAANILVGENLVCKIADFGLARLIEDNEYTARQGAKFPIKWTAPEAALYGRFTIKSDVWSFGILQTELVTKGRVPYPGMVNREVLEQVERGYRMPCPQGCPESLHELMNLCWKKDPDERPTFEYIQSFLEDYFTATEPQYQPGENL
Sequence of RIPK2 (O43353 whole entry): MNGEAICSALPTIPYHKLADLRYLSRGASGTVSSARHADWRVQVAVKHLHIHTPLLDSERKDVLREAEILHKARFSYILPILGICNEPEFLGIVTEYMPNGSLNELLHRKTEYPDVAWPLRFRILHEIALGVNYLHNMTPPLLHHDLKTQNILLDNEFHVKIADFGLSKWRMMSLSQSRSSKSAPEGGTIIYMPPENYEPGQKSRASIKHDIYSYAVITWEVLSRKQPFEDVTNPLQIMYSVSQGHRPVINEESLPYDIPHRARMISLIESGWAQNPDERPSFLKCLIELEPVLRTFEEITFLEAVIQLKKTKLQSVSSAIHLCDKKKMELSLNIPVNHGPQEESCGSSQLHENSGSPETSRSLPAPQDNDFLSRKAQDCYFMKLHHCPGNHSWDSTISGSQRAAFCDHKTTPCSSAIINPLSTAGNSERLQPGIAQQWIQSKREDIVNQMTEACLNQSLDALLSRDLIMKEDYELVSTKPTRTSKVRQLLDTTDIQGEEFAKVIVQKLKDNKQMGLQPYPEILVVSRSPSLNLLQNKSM
Sequence of LCK (P06239 whole entry): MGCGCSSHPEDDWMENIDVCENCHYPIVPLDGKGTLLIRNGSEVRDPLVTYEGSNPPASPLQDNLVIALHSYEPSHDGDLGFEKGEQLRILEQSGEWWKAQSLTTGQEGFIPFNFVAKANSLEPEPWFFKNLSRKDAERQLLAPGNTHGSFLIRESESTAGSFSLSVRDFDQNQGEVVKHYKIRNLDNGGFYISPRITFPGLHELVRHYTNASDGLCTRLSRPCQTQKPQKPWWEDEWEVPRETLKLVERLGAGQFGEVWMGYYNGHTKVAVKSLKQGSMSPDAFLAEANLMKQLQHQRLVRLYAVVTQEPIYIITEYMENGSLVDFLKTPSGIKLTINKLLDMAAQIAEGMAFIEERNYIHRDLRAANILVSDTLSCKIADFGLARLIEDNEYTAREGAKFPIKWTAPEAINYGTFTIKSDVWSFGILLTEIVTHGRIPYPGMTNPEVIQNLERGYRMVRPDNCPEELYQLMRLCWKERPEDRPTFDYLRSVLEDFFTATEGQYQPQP
Sequence of CK1e (P49674 whole entry): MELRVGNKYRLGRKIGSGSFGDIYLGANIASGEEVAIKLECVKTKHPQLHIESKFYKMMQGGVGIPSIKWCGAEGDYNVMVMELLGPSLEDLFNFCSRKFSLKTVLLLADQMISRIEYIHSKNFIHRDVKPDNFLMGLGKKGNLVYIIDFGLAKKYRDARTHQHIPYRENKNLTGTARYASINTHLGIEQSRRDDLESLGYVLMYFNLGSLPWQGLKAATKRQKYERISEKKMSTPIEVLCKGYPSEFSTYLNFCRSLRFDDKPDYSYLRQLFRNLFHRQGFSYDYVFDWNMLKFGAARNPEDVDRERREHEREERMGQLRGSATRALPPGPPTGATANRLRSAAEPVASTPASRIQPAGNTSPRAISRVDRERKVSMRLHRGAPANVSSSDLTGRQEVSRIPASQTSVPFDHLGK

Compound: COc1ccc(C=C2N=C(c3cccs3)OC2=O)cc1 [Comparative Compound 315, 4-((4-methoxyphenyl)methylene)-2-(2-thienyl)-5(4H)-oxalone]
- % of remaining activity (relative to DMSO) (CK1a1; listed as Cmp 315): 44.41%
- remaining activity at 10 µM (CK1a1; [1]): 33.6%
- % of remaining activity (relative to DMSO) (CK1e; listed as Cmp 315): 6.51%
- remaining activity at 10 µM (CK1e; [1]): 5.45%
- % of remaining activity (relative to DMSO) (CK1g1; listed as Cmp 315): 73.02%
- remaining activity at 10 µM (CK1g1; [1]): 71.9%
- % of remaining activity (relative to DMSO) (CK1g3; listed as Cmp 315): 2.99%
- remaining activity at 10 µM (CK1g3; [1]): 2.9%
- % of remaining activity (relative to DMSO) (EPHA2; listed as Cmp 315): 96.60%
- remaining activity at 10 µM (EPHA2; [1]): 99%
- % of remaining activity (relative to DMSO) (FGFR1; listed as Cmp 315): 101.65%
- remaining activity at 10 µM (FGFR1; [1]): 102%
- % of remaining activity (relative to DMSO) (GSK3B; listed as Cmp 315): 115.26%
- remaining activity at 10 µM (GSK3B; [1]): 120%
- % of remaining activity (relative to DMSO) (JNK2; listed as Cmp 315): 98.70%
- remaining activity at 10 µM (JNK2; [1]): 99.4%
- % of remaining activity (relative to DMSO) (LCK; listed as Cmp 315): 97.71%
- remaining activity at 10 µM (LCK; [1]): 94.9%
- % of remaining activity (relative to DMSO) (MSK1/RPS6KA5; listed as Cmp 315): 118.15%
- remaining activity at 10 µM (MSK1/RPS6KA5; [1]): 117%
- % of remaining activity (relative to DMSO) (P38a/MAPK14; listed as Cmp 315): 107.03%
- remaining activity at 10 µM (P38a/MAPK14; [1]): 105%
- % of remaining activity (relative to DMSO) (PDK1/PDPK1; listed as Cmp 315): 103.28%
- remaining activity at 10 µM (PDK1/PDPK1; [1]): 105%
- % of remaining activity (relative to DMSO) (PKA; listed as Cmp 315): 112.40%
- remaining activity at 10 µM (PKA; [1]): 116%
- % of remaining activity (relative to DMSO) (PKCb2; listed as Cmp 315): 110.56%
- remaining activity at 10 µM (PKCb2; [1]): 112%
- % of remaining activity (relative to DMSO) (RIPK2; listed as Cmp 315): 90.19%
- remaining activity at 10 µM (RIPK2; [1]): 93.4%
- % of remaining activity (relative to DMSO) (YES/YES1; listed as Cmp 315): 99.08%
- remaining activity at 10 µM (YES/YES1; [1]): 99%
- % of remaining activity (relative to DMSO) (c-Src; listed as Cmp 315): 101.24%
- remaining activity at 10 µM (c-Src; [1]): 104%
